# Source: patent US4229375A (priority 1977, dated 1980)
# Structures can show the parent of a compound that is named as a salt.
# Experiments:
# Newcastle disease virus = test: microbe, parasite or virus in culture; format: cell-based; settings: for MIC: avian paramyxovirus 1, in Gallus gallus, 48 h, read-out: Minimum growth-inhibition concentration
# in vitro = settings: chicken, chick embryo fibroblast
Compound,MIC (Newcastle disease virus) [µg/mL],MCC at 48 h (in vitro) [µg/mL],"inhibitory effect on the growth of viruses (in words) (Newcastle disease virus; compared with 1-aminotricyclo[4.3.1.1^2,5 ]undecane)",inhibitory effect on the growth of Newcastle disease virus (in words) (Newcastle disease virus; in chick embryo fibroblasts),"fraction of the concentration of 1-aminotricyclo[4.3.1.1^2,5 ]undecane at which virus multiplication is inhibited (Newcastle disease virus; relative to 1-aminotricyclo[4.3.1.1^2,5 ]undecane, Newcastle disease virus in chick embryo fibroblasts)","fraction of the concentration of adamantylamine hydrochloride at which virus multiplication is inhibited (Newcastle disease virus; relative to adamantylamine hydrochloride, Newcastle disease virus in chick embryo fibroblasts)"
"Cl.NC12CCCC(C1)C1CCC2C1 (stereo not shown) [1-Aminotricyclo-[4.3.1.1^2,5]undecane hydrochloride, reference compound]",87,87,,,,
"Cl.NCC12CCCC(C1)C1CCC2C1 (stereo not shown) [1-aminomethyltricyclo[4.3.1.1^2,5]undecane hydrochloride]",40,40,,,,
"NC12CC3CC(CC(C3)C1)C2 [Adamantylamine hydrochloride, reference compound]",250,250,,,,
"NCC12CCCC(C1)C1CCC2C1 (stereo not shown) [compound of the formula (I), 1-aminomethyltricyclo[4.3.1.1^2,5]undecane]",,,inhibitory effect on the growth of viruses at a lower concentration than the earlier compound,excellent inhibitory effect,1/2,about 1/6
